Assay results from patent US20260217730A1, “PROTEOLYSIS TARGETING CHIMERA COMPOUND” (BEIJING TIDE PHARMACEUTICAL CO., LTD., priority 2023, published 2026).

Assays:
[1] = target: T1, SHP2 (Homo sapiens, UniProt Q06124); assay: Western blot, degradation of SHP2 in vitro; assay type: cell-based; conditions: degradation of SHP2 in SUM159 cells, 24 hours with compound
T1 construct: endogenous in cells; host or cells: SUM159 triple-negative breast cancer cells
T1 sequence (Q06124 1-593): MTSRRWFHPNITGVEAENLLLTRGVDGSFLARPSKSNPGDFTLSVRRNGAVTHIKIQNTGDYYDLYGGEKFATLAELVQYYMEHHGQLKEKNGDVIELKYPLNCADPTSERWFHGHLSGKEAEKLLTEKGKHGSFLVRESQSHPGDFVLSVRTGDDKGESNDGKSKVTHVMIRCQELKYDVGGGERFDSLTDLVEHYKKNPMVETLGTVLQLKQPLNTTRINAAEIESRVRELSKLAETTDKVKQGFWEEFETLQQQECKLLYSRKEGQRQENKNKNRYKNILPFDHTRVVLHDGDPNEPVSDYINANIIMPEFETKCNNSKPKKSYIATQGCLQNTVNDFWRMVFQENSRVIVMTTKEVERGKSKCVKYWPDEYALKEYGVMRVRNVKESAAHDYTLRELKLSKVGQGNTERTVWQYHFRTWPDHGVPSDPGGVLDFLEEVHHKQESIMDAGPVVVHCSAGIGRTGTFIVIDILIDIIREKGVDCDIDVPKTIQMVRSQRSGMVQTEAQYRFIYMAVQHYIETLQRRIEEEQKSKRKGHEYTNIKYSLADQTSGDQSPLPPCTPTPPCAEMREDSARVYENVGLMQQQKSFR
Procedure: 1. The Biological Activity of Compounds was Determined by Western Blot Method Using the Following Method:
Reagents: Complete 1640 medium was purchased from Gibco. Fetal bovine serum was purchased from ThermoFisher. Trypsin was produced by ThermoFisher. SHP-2 antibody was produced by CST.
(§1) Cell line: SUM159 triple-negative breast cancer cell line was established by Rovera.
Method for assay: Cells growth in the logarithmic phase were collected and suspended in a 1640 medium containing 10% fetal bovine serum, which was then gently pipetted into a single-cell suspension. Viable cells were counted under microscope. 9 mL of the cell suspension was seeded and cultured in a 10 cm culture dish at a final concentration of 2×10^5 cells/mL. After cells were pre-cultured for 24 hours at 37° C. and 5% CO2, different concentrations of solutions of the compounds of the present disclosure in DMSO were added (the final concentration of DMSO was no more than 0.5%), and the negative control group was added with the same volume of DMSO alone. After cultured for another 24 hours, all cells were collected and washed with PBS. The cells were lysed with RIPA lysis buffer, and the lysates were collected into a 1.7 mL centrifuge tube. The proteins were fully denatured after heating in the metal bath at 95° C. for 10 minutes. After loading the samples onto the gel for Western blotting, electrophoresis was performed at a constant voltage of 100V until the band of bromophenol blue reached the terminal point. The proteins were transferred onto a cellulose acetate membrane using the wet transfer method at a constant current of 300-500 mA for 45 minutes, and the proteins were blocked with 5% BSA at room temperature for 1-2 hours. The proteins were incubated with primary antibody diluted 1:500 to 1:8000 at room temperature for 2 hours, and then washed three times. Subsequently, the proteins were incubated with secondary antibody at room temperature for 1 hour. The detection of proteins was performed using ultrasensitive ECL luminescent liquid such as Enlight, and signals were captured using an automatic X-ray film developing machine. For the test results, see the in vitro Western Blot experiment of Example 1 and the in vitro Western Blot experiment of Example 3.
The compounds of the present disclosure have good in vitro anti-solid tumor and anti-blood tumor activities and have low toxicity to normal cells.

[2] = tested on: SUM159 triple-negative breast cancer cell line; assay: CCK8 method, cell viability; assay type: cell-based; conditions: SUM159 cells, 72 hours, CCK8 absorbance
Procedure: 2. The Biological Activity of Compounds was Determined by CCK8 Method Using the Following Method:
Reagents: Complete RPMI 1640 medium was purchased from Gibco. Fetal bovine serum was purchased from ThermoFisher. Trypsin was produced by ThermoFisher. SHP-2 antibody was produced by CST. CCK8 was produced by abcam.
as §1
Method for assay: Cells growth in the logarithmic phase were collected and suspended in a RPMI 1640 medium containing 10% fetal bovine serum, which was then gently pipetted into a single-cell suspension. Viable cells were counted under microscope. The cells were seeded into a 96-well plate at a density of 3-6*10^3 cells per well and cultured in an incubator for 24 hours. Test compounds were diluted in multiples, and then the cell culture supernatant was added. The cells were cultured for another 72 hours, and 10 μL of CCK8 detection solution was added to each well. After incubating for 1-4 hours, the absorbance was measured using a microplate reader.

[3] = PAMPA experiment; assay type: in vitro ADME; conditions: 1.8% lecithin membrane, drug test solution 10 μM, 37° C., 16 hours
Procedure: Reagents: lecithin, n-dodecane, HEPES, dimethyl sulfoxide (DMSO), acetonitrile
Instrument and equipment: Multiscreen 96-well plate (up Merck Millipore), Multiscreen 96-well plate (down Merck Millipore), electronic analytical balance, constant temperature incubator, high performance liquid chromatography-mass spectrometry (LC-MS)
Method for operation: Preparation of PAMPA artificial membrane: about 18 mg of lecithin was weighed accurately, and placed into a 1.5 mL EP tube. 1 mL of n-dodecane was added. The mixture was dissolved by ultrasonication, and then thoroughly mixed to obtain a 1.8% lecithin membrane.
The upper layer of the PAMPA model was the plate lid, the middle layer was the 96-well filter plate (donor plate), and the lower layer was the accepter plate. 5 μL of the above 1.8% lecithin membrane was added to the filter membrane of the donor plate, and then 150 μL of the drug test solution (10 μM) was added. 300 μL of HEPES solution was added to each well of the accepter plate (completed within 10 minutes). The donor plate was slowly placed onto the accepter plate and incubated at 37° C. for 16 hours.
LC-MS detection: 100 μL of the positive control and the test compound was weighed respectively, to which 100 μL of acetonitrile-DMSO solution [acetonitrile-DMSO (4:1)] was added. The mixture was mixed well, and detected by LC-MS at OH and 16H. The corresponding molecular ion peak was extracted and the peak area was obtained; After the PAMPA model was incubated at 37° C. for 16 h, 100 μL of the test solution in the donor plate and the accepter plate was weighed respectively, to which 100 μL of acetonitrile-DMSO solution [acetonitrile-DMSO (4:1)] was added. The mixture was mixed well, and detected by LC-MS. The corresponding molecular ion peak was extracted, the peak area was obtained, and the concentration was calculated.

SMILES | DC50 [1] [nM] | IC50 [2] [nM] | PAMPA (−Log Pe) [3]
O=C1CC(=O)OCN2C(=O)CCC(C2=O)N2Cc3cc(ccc3C2=O)OCCOC/C=C\COCCOc2ccc(c(Cl)c2)-c2cc(=O)c3cc(I)c(cc3o2)CO1 (centres unmarked) [Example 1] | 210 | 28.8 | 6.71
O=C1CCC2C(=O)N1COP(=O)(O)OCc1cc3oc(cc(=O)c3cc1I)-c1ccc(cc1Cl)OCCOC/C=C\COCCOc1ccc3c(c1)C(=O)N2C3=O (centres unmarked) [Example 2] | – | 1000 | 6.0
O=C1OCc2cc3oc(cc(=O)c3cc2I)-c2ccc(cc2Cl)OCCOC/C=C\COCCOc2ccc3c(c2)CN(C3=O)C2CCC(=O)N(COC1=O)C2=O (centres unmarked) [Example 3] | 37 | 7.43 | 5.94
O=C1CC(=O)OCN2C(=O)CCC(C2=O)N2Cc3cc(ccc3C2=O)OCCCC/C=C\CCCCOc2ccc(c(Cl)c2)-c2cc(=O)c3ccc(cc3o2)CO1 (centres unmarked) [Example 4] | – | 718 | 6.11
CN1CC(=O)OCc2ccc3c(=O)cc(oc3c2)-c2ccc(cc2Cl)OCCOC/C=C/COCCOc2ccc3c(c2)CN(C3=O)C2CCC(=O)N(COC(=O)C1)C2=O (centres unmarked) [Example 9] | 4.21 | 2.39 | 5.52
CN1CC(=O)OCc2ccc3c(=O)cc(oc3c2)-c2ccc(cc2Cl)OCCOCCCCOCCOc2ccc3c(c2)CN(C3=O)C2CCC(=O)N(COC(=O)C1)C2=O (centres unmarked) [Example 10] | 5.94 | 3.5 | 5.56

Other lines, results leading:

DC50 [1] [nM] | IC50 [2] [nM] | PAMPA (−Log Pe) [3] | SMILES
500 | 200 | 5.78 | O=C1OCc2cc3oc(cc(=O)c3cc2I)-c2ccc(cc2Cl)OCCOC/C=C\COCCOc2ccc3c(c2)CN(C3=O)C2CCC(=O)N(COC(=O)c3cccc1c3)C2=O (centres unmarked) [Example 5]
10 | > 5000 | 8.55 | O=C1OCc2ccc3c(=O)cc(oc3c2)-c2ccc(cc2Cl)OCCCC/C=C/CCCCOc2ccc3c(c2)CN(C3=O)C2CCC(=O)N(COC(=O)c3cccc1c3)C2=O (centres unmarked) [Example 6]
188 | 23.1 | – | O=C1CC(=O)OCN2C(=O)CCC(C2=O)N2Cc3cc(ccc3C2=O)OCCOC/C=C\COCCOc2ccc(c(Cl)c2)-c2cc(=O)c3ccc(cc3o2)CO1 (centres unmarked) [Example 7]
– | 5.33 | 4.68 | N[C@H]1CCC(=O)OCc2ccc3c(=O)cc(oc3c2)-c2ccc(cc2Cl)OCCOC/C=C/COCCOc2ccc3c(c2)CN(C3=O)C2CCC(=O)N(COC1=O)C2=O (some centres unmarked) [Example 8]
